The results in this text go back to PubChem BioAssay AID342 (DTP/NCI, 2004).

In the assay the test system is Swiss mice, Sarcoma 180 sc, mean tumor weight T/C. The assay is described as follows: NCI In Vivo Anticancer Drug Screen. Data for tumor model Sarcoma 180 (subcutaneous) in Swiss mice. As to conditions: endpoint: mean tumor weight, higher = larger tumour. An outline of the steps:
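Mice bearing transplanted tumors were treated with compound, and survival or tumor size was measured. Values are expressed as the treated-group measurement (T) divided by the vehicle-treated control measurement (C).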

[1] abbreviates: dose: 25.0 mg/kg/injection, schedule: Q01DX007 (ip), vehicle: carboxymethylcellulose (CMC).
Where [2] appears, read: dose: 50.0 mg/kg/injection, schedule: Q01DX007 (ip), vehicle: water.
Where [3] appears, read: dose: 100.0 mg/kg/injection, schedule: Q01DX007 (ip), vehicle: water.

“And” between values parts separate entries of the source, which are not always exact repeats. Equal values may be shown once.

On to `Cn1cc(NC(=O)c2cc(NC(=O)c3cc(NC=O)cn3C)cn2C)cc1C(=O)NCCC(=N)N`, for which the T/C (as a rule, the result in the treated group divided by that in the control group, in per cent) runs as follows: (dose: 20.0 mg/kg/injection, schedule: Q01DX007 (sc), vehicle: water) 80 % of control; (dose: 25.0 mg/kg/injection, schedule: Q01DX007 (sc), vehicle: water) 77 % of control; (dose: 40.0 mg/kg/injection, schedule: Q01DX007 (sc), vehicle: water) 92 % of control; (dose: 50.0 mg/kg/injection, schedule: Q01DX007 (sc), vehicle: water) 64 % of control; (dose: 75.0 mg/kg/injection, schedule: Q01DX007 (sc), vehicle: water) 71 % of control.

On to `NC(=O)SCC(=O)Nc1ccc2ncccc2c1`, for which the T/C was 84 % of control (dose: 42.0 mg/kg/injection, schedule: Q#A X014 (ip), vehicle: methylcellulose (MC)); 76 % of control (dose: 63.5 mg/kg/injection, schedule: Q#A X014 (ip), vehicle: methylcellulose (MC)); 58 % of control (dose: 93.5 mg/kg/injection, schedule: Q#A X014 (ip), vehicle: methylcellulose (MC)); 56 % of control (dose: 140.0 mg/kg/injection, schedule: Q#A X014 (ip), vehicle: methylcellulose (MC)); 87 % of control (dose: 250.0 mg/kg/injection, schedule: Q01DX007 (ip), vehicle: other); 46 % of control (dose: 500.0 mg/kg/injection, schedule: Q01DX007 (ip), vehicle: other).

For the compound `O=[N+]([O-])c1ccc(O)c([N+](=O)[O-])c1`, the T/C (dose: 1325.0 micrograms/kg/injection, schedule: Q01DX007 (ip), vehicle: carboxymethylcellulose (CMC)) is 69 % of control; the T/C (dose: 2650.0 micrograms/kg/injection, schedule: Q01DX007 (ip), vehicle: carboxymethylcellulose (CMC)) is 96 % of control; the T/C (dose: 4300.0 micrograms/kg/injection, schedule: Q01DX007 (ip), vehicle: carboxymethylcellulose (CMC)) is 71 % of control; the T/C (dose: 6625.0 micrograms/kg/injection, schedule: Q01DX007 (ip), vehicle: carboxymethylcellulose (CMC)) is 79 % of control.

For `Nc1cccc2c(=O)[nH][nH]c(=O)c12`, the T/C (dose: 62.5 mg/kg/injection, schedule: Q01DX007 (ip), vehicle: water) is 119 % of control; the T/C (dose: 125.0 mg/kg/injection, schedule: Q01DX007 (ip), vehicle: water) was 118 % of control; the T/C (dose: 250.0 mg/kg/injection, schedule: Q01DX007 (ip), vehicle: water) was 61 % of control; the T/C (dose: 375.0 mg/kg/injection, schedule: Q01DX007 (ip), vehicle: water) is 85 % of control.

Take `O=C(NC(CO)C(=O)O)C(Cl)Cl` (stereo not drawn): the T/C was 47 % of control (dose: 500.0 mg/kg/injection, schedule: Q#A X014 (ip), vehicle: methylcellulose (MC)); 52 % of control (dose: 1000.0 mg/kg/injection, schedule: Q#A X014 (ip), vehicle: methylcellulose (MC)); 60 % of control (dose: 1500.0 mg/kg/injection, schedule: Q#A X014 (ip), vehicle: methylcellulose (MC)); 66 % of control (dose: 2000.0 mg/kg/injection, schedule: Q#A X014 (ip), vehicle: methylcellulose (MC)); 68 % of control (dose: 2500.0 mg/kg/injection, schedule: Q#A X014 (ip), vehicle: methylcellulose (MC)).

As to `CNCc1ccccc1`, for the setting “dose: 146.5 mg/kg/injection, schedule: Q01DX007 (ip), vehicle: carboxymethylcellulose (CMC)”, the T/C was 91 % of control.

With `CC1(C)CCC2(C(=O)O)CCC3=C(C(CCl)CC4C3(C)CCC3C4(C)CC(O)C(O)C3(C)C(=O)O)C2C1` (stereo not drawn), the T/C by setting is: under setting [1], 108 % of control; (dose: 50.0 mg/kg/injection, schedule: Q01DX007 (ip), vehicle: carboxymethylcellulose (CMC)) 80 % of control; (dose: 75.0 mg/kg/injection, schedule: Q01DX007 (ip), vehicle: carboxymethylcellulose (CMC)) 157 % of control; (dose: 125.0 mg/kg/injection, schedule: Q01DX007 (ip), vehicle: carboxymethylcellulose (CMC)) 70 % of control.

For `COc1ccc2c(c1)CC[C@@H]1[C@@H]2CC[C@]2(C)[C@H](O)[C@H](O)C[C@@H]12`, the T/C runs as follows: (dose: 0.5 mg/kg/injection, schedule: Q01DX007 (sc), vehicle: steriod suspending solution) 117 % of control; (dose: 1.25 mg/kg/injection, schedule: Q01DX007 (sc), vehicle: steriod suspending solution) 81 % of control; (dose: 2.5 mg/kg/injection, schedule: Q01DX007 (sc), vehicle: steriod suspending solution) 66 % of control and 90 % of control; (dose: 5.0 mg/kg/injection, schedule: Q01DX007 (sc), vehicle: steriod suspending solution) 60 % of control; (dose: 10.0 mg/kg/injection, schedule: Q01DX007 (sc), vehicle: steriod suspending solution) 61 % of control.

As to `CC(C)([NH-])CO.CC(C)([NH-])CO.[Cl][Cd][Cl]`, the T/C runs as follows: (dose: 1.0 mg/kg/injection, schedule: Q#A X014 (ip), vehicle: methylcellulose (MC)) 50 % of control; (dose: 1.0 mg/kg/injection, schedule: Q#A X014 (ip), vehicle: other) 91 % of control; (dose: 1.5 mg/kg/injection, schedule: Q#A X014 (ip), vehicle: methylcellulose (MC)) 113 % of control; (dose: 1.5 mg/kg/injection, schedule: Q#A X014 (ip), vehicle: other) 104 % of control; (dose: 1.75 mg/kg/injection, schedule: Q#A X014 (ip), vehicle: methylcellulose (MC)) 70 % of control; (dose: 2.5 mg/kg/injection, schedule: Q#A X014 (ip), vehicle: methylcellulose (MC)) 85 % of control. For the same compound, the T/C is, setting by setting: (dose: 2.5 mg/kg/injection, schedule: Q#A X014 (ip), vehicle: other) 85 % of control; (dose: 2.65 mg/kg/injection, schedule: Q#A X014 (ip), vehicle: methylcellulose (MC)) 73 % of control; (dose: 3.75 mg/kg/injection, schedule: Q#A X014 (ip), vehicle: methylcellulose (MC)) 73 % of control; (dose: 3.75 mg/kg/injection, schedule: Q#A X014 (ip), vehicle: other) 102 % of control; (dose: 4.0 mg/kg/injection, schedule: Q#A X014 (ip), vehicle: methylcellulose (MC)) 49 % of control; (dose: 6.0 mg/kg/injection, schedule: Q#A X014 (ip), vehicle: methylcellulose (MC)) 36 % of control.

Regarding `Oc1cc(O)c2c(c1)O[C@H](c1ccc(O)c(O)c1)[C@@H](O)C2`, the T/C (dose: 6.25 mg/kg/injection, schedule: Q01DX007 (ip), vehicle: saline) is 84 % of control; the T/C (dose: 12.5 mg/kg/injection, schedule: Q01DX007 (ip), vehicle: saline) is 99 % of control; the T/C (dose: 25.0 mg/kg/injection, schedule: Q01DX007 (ip), vehicle: saline) was 88 % of control; the T/C (dose: 100.0 mg/kg/injection, schedule: Q01DX007 (ip), vehicle: saline) was 83 % of control; the T/C (dose: 200.0 mg/kg/injection, schedule: Q01DX007 (ip), vehicle: saline) is 87 % of control; the T/C (dose: 400.0 mg/kg/injection, schedule: Q01DX007 (ip), vehicle: saline) was 80 % of control.

On to `CC(NC(=O)C1(N)CCCC1)C(=O)O` (stereo not drawn), for which the T/C was 91 % of control under setting [1]; 21 % of control (dose: 100.0 mg/kg/injection, schedule: Q01DX007 (ip), vehicle: carboxymethylcellulose (CMC)); 36 % of control (dose: 222.0 mg/kg/injection, schedule: Q01DX007 (ip), vehicle: steriod suspending solution); 25 % of control (dose: 333.0 mg/kg/injection, schedule: Q01DX007 (ip), vehicle: steriod suspending solution).

On to `CN1CCC=C(C(=O)O)C1`, for which the T/C (dose: 10.0 mg/kg/injection, schedule: Q01DX007 (ip), vehicle: water) is 78 % of control; the T/C under setting [2] was 75 % of control; the T/C under setting [3] was 83 % of control.

Regarding `CC(C)=CCC1=C(O)c2ccccc2C(=O)C1=O`, the T/C runs as follows: (dose: 30.0 mg/kg/injection, schedule: Q01DX007 (ip), vehicle: water) 96 % of control; under setting [2], 97 % of control; (dose: 67.0 mg/kg/injection, schedule: Q01DX007 (ip), vehicle: other) 68 % of control; (dose: 100.0 mg/kg/injection, schedule: Q01DX007 (ip), vehicle: other) 90 % of control; under setting [3], 91 % of control and 107 % of control; (dose: 100.0 mg/kg/injection, schedule: Q#A X014 (oral), vehicle: other) 70 % of control. The T/C by setting is: (dose: 150.0 mg/kg/injection, schedule: Q01DX007 (ip), vehicle: other) 73 % of control; (dose: 150.0 mg/kg/injection, schedule: Q#A X014 (oral), vehicle: other) 46 % of control; (dose: 200.0 mg/kg/injection, schedule: Q#A X014 (oral), vehicle: other) 42 % of control.
